According to US9890407B2, “Method for synthesizing cellulose in vitro” (University of Virginia Patent Foundation, priority 2013, dated 2018):

How the values were obtained:
[1] = biological target: T1, Rhodobacter sphaeroides BcsA-B complex (cellulose synthase), wild type, BcsA SEQ ID NO: 1, BcsB SEQ ID NO: 3 (Cereibacter sphaeroides, UniProt Q3J125); experiment: Inhibition of cellulose synthesis by alternative substrates (enzyme-coupled assay, PLs-reconstituted BcsA-B); assay type: biochemical; conditions: 1 mM UDP-Glc; for inhibition of polymer synthesis by alternative UDP-sugars: increasing concentrations of UDP-sugar; for reduction of the apparent reaction rate (inhibition): 5 mM alternative UDP-sugar, 90 min, 37° C.
T1 construct: pETDuet, E. coli C43; purified, reconstituted in nanodiscs, proteoliposomes or detergent
T1 sequence (Q3J125 1-788): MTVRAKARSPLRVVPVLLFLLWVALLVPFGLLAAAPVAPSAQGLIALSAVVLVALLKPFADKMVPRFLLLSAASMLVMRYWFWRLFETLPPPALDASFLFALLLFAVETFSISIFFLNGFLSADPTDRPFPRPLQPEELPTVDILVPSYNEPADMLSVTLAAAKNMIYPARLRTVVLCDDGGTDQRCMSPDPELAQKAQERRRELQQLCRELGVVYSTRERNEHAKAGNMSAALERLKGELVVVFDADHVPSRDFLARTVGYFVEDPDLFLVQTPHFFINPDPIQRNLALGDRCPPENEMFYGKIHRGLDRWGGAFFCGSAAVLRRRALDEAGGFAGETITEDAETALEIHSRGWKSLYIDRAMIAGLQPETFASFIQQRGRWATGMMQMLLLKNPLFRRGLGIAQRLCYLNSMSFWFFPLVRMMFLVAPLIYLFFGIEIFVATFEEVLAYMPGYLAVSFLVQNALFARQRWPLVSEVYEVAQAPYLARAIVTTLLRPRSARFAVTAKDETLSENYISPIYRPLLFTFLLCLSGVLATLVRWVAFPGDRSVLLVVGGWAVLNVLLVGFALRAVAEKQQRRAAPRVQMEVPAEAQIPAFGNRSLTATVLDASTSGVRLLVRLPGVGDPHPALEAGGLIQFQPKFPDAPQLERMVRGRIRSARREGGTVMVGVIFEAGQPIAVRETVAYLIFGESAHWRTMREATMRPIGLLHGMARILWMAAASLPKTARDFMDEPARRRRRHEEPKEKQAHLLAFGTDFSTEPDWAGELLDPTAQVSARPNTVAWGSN
T1 sequence (Q3J126 21-725 partner): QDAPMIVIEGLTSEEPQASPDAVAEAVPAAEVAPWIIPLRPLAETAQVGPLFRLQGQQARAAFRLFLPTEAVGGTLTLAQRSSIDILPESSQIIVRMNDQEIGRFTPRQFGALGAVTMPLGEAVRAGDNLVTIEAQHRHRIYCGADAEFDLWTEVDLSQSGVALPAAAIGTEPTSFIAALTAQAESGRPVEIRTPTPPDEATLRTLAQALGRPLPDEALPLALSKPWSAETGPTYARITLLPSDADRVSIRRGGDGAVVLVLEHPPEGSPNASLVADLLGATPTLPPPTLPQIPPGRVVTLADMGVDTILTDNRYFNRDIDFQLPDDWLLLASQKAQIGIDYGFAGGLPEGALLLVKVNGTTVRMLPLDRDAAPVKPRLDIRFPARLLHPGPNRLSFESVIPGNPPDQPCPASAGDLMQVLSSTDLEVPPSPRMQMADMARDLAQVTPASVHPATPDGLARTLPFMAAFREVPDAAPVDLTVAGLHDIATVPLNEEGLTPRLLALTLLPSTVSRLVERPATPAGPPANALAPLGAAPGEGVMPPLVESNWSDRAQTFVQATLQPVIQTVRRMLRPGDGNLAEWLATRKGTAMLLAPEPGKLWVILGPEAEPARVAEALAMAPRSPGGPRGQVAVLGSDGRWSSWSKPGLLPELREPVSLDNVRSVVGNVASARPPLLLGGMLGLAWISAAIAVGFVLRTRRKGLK
Procedure: (§1) Pyruvate kinase (PK)—and lactate dehydrogenase (LDH)-coupled activity assays were performed by incubating 0.5 μM cellulose synthase with 1 U PK and 1 U LDH, 0.5 mM NADH, 1 mM phosphoenolpyruvate, and 30 mM MgCl2 in 20 mM Tris pH 7.5, 100 mM NaCl, 5 mM cellobiose and 10% glycerol in a total volume of 20 μL. The cellulose synthase complex was added last to the reaction mix after a pre-incubation for 10 min at RT. The decrease in absorbance at 340 nm was measured in a SpectraMax plate reader in Corning 384 well clear flat bottom assay plates. Control reactions in the absence of cellulose synthase were performed to determine the background NADH oxidation. Data were plotted and analyzed in Origin (5) and fitted to monophasic Michaelis-Menten kinetics as described (3).

Rs BcsA-B complex [2] = experiment: Cellulose synthase sedimentation assay (3H-labeled water-insoluble cellulose, scintillation counting); assay type: biochemical, Rhodobacter sphaeroides; conditions: for divalent cation supporting cellulose synthase activity: 20 mM cation, 45 min 37° C.
Procedure: (FIG. 4A) Enzyme-coupled cellulose synthesis assays were performed as described in FIG. 3 in the absence or presence of 0.1 mg/ml E. coli BesZ. […] Inset: Radioactive sedimentation assay performed with ND-reconstituted BcsA-B synthesizing cellulose in the absence or presence of BcsZ. […] The obtained product is quantified relative to the polymer formed in the absence of any nucleoside diphosphate.
FIG. 9A-9B (also referred to as Example 1, Supplementary FIG. 3): Cation selectivity and pH optimum of cellulose synthase. (FIG. 9A) Cellulose synthesis reactions were performed in the presence of 20 mM of the indicated cations or in the absence of any additional divalent cations with and without addition of 20 mM EDTA. The activities are shown relative to the activity in the presence of magnesium. […] All activity assays were performed for 45 min at 37° C. with 1 μM PLs-reconstituted. Rs BcsA-B and by quantifying the accumulation of ^3H-labeled water insoluble cellulose as described.
Following incubation at 37° C. for 45 min, the polymerization reaction was terminated by addition of 2% SDS and the water-insoluble polymer was pelleted by centrifugation at 15,000 rpm at room temperature (RT). The obtained pellet was resuspended in 20 μL 50 mM Tris pH 7.5, 0.1 M NaCl and spotted at the origin of a descending Whatman-2MM chromatography paper, which was developed in an aqueous solution of 60% ethanol. For enzymatic degradation, the pellet was resuspended in 20 μL 50 mM sodium acetate pH 4.5 and 100 mM NaCl and was digested with 0.1 mg/ml of endo-β-1,4- or endo-β-1,3 glucanase from Aspergillus niger (TCI) or Trichoderma sp. (Megazyme), respectively. Following paper chromatography, the high molecular weight polymer retained at the origin was quantified by scintillation counting.
Following synthesis, the reactions were treated as described above.

Rs BcsA-B complex [3] = experiment: Enzyme-coupled (PK/LDH) cellulose synthase activity assay, UDP formation followed via NADH oxidation at 340 nm; assay type: biochemical, Rhodobacter sphaeroides; conditions: for residual activity with alternative substrate as only carbohydrate source, relative to UDP-Glc: 5 mM substrate, 0.5 μM PL-reconstituted BcsA-B
Procedure: FIG. 3A-3D (also referred to as Example 1, FIG. 3): Kinetic analysis of cellulose synthesis and stimulation by cyclic-di-GMP. (FIG. 3A) Cellulose synthesis reactions were performed in the presence of IU PK and LDH, 0.5 mM NADH and 1 mM PEP. The LDH-catalyzed oxidation of NADH to NAD^+ was monitored spectrophotometrically at 340 nm. […] Addition of 1 mM UDP to the reaction rapidly depletes NADH by circumventing cellulose synthesis. […] The data were fit to monophasic Michaelis-Menten kinetics. […] All reactions were performed at room temperature with 0.5 μM ND-reconstituted BcsA-B in a total volume of 20 μl.
Thus, the second product of the cellulose synthase reaction is UDP. […] Because PK recognizes UDP but not UMP as substrate (36), the successful coupling of cellulose synthesis with its activity implies the formation of UDP. To ensure that all BcsA-B complexes are accessible to the substrates and can contribute to the observed reaction, the complex was reconstituted into lipid nanodiscs (ND) (FIG. S4), which are edge-stabilized, planar lipid bilayer discs approximately 10 nm in diameter (37). At this size, each ND most likely contains a single BcsA-B complex (38).
as §1

[4] = 0.1 mg/ml E. coli BcsZ, ND-reconstituted BcsA-B

Question: Which “inhibition of polymer synthesis by alternative UDP-sugars” value [1] does the source give for `O=c1ccn([C@@H]2O[C@H](COP(=O)(O)OP(=O)(O)O[C@H]3OC[C@@H](O)[C@H](O)[C@H]3O)[C@@H](O)[C@H]2O)c(=O)[nH]1` [UDP-Xyl, UDP-xylose] here?
Answer: Its value is “strongest inhibitor”.

Question: What about the “reduction of the apparent reaction rate (inhibition)” value [1] of the same molecule?
Answer: Its value is “about 60%”.

Question: For `[Mg+2]` [Mg2+], which “divalent cation supporting cellulose synthase activity” value (Rs BcsA-B complex [2]; 1 μM PL-reconstituted BcsA-B) is on record?
Answer: Its value is “approximately equal activity levels”.

Question: How did the “product formed relative to absence of nucleoside diphosphate” value (Rs BcsA-B complex [2]; 0.7 mM UDP, 0.5 mM UDP-Glc, 1 μM PL-reconstituted BcsA-B, 60 min 37° C.) turn out when `O=c1ccn([C@@H]2O[C@H](COP(=O)(O)OP(=O)(O)O)[C@@H](O)[C@H]2O)c(=O)[nH]1` [UDP, uridine diphosphate] was run?
Answer: Its value is 50%.

Question: What about the “mode of inhibition of cellulose synthase” value (Rs BcsA-B complex [2]; 0.7 mM UDP, increasing UDP-Glc) of the same molecule?
Answer: The value was “competitive”.

Question: How did the “inhibition of polymer synthesis by alternative UDP-sugars” value [1] turn out when `CC(=O)N[C@H]1[C@@H](OP(=O)(O)OP(=O)(O)OC[C@H]2O[C@@H](n3ccc(=O)[nH]c3=O)[C@H](O)[C@@H]2O)O[C@H](CO)[C@@H](O)[C@@H]1O` [UDP-NAG, UDP-N-acetyl glucosamine] was run?
Answer: The value was “concentration-dependent inhibition”.

Question: And the “reduction of the apparent reaction rate (inhibition)” value [1]?
Answer: Its value is 20%.

Question: Which “divalent cation supporting cellulose synthase activity” value (Rs BcsA-B complex [2]; 1 μM PL-reconstituted BcsA-B) does the source give for `[Mn+2]` [Mn2+] here?
Answer: The value was “approximately equal activity levels”.

Question: With `O=c1ccn([C@@H]2O[C@H](COP(=O)(O)OP(=O)(O)O[C@H]3OC[C@@H](O)[C@H](O)[C@H]3O)[C@@H](O)[C@H]2O)c(=O)[nH]1` [UDP-xylose] as the molecule, how does the “residual activity with alternative substrate as only carbohydrate source, relative to UDP-Glc” value (from here on “residual activity … relative to UDP-Glc”) (Rs BcsA-B complex [3]) read?
Answer: The value was “about 20%”.

Question: With `O=c1ccn([C@@H]2O[C@H](COP(=O)(O)OP(=O)(O)O[C@H]3OC[C@H](O)[C@H](O)[C@H]3O)[C@@H](O)[C@H]2O)c(=O)[nH]1` [UDP-arabinose] as the molecule, how does the “residual activity … relative to UDP-Glc” value (Rs BcsA-B complex [3]) read?
Answer: The value was “about 20%”.

Question: With `CC(=O)N[C@H]1[C@@H](OP(=O)(O)OP(=O)(O)OC[C@H]2O[C@@H](n3ccc(=O)[nH]c3=O)[C@H](O)[C@@H]2O)O[C@H](CO)[C@@H](O)[C@@H]1O` [UDP-N-acetyl glucosamine] as the molecule, how does the “residual activity … relative to UDP-Glc” value (Rs BcsA-B complex [3]) read?
Answer: The value was “about 20%”.

Question: How did the “residual activity … relative to UDP-Glc” value (Rs BcsA-B complex [3]) turn out when `O=C(O)[C@H]1O[C@H](OP(=O)(O)OP(=O)(O)OC[C@H]2O[C@@H](n3ccc(=O)[nH]c3=O)[C@H](O)[C@@H]2O)[C@H](O)[C@@H](O)[C@@H]1O` [UDP-glucuronic acid] was run?
Answer: The value was “about 20%”.

B1: BcsZ: E. coli periplasmic cellulase encoded in cellulose synthase operons (protein, UniProt P37651 22-368, looked up)
Endoglucanase: ACTWPAWEQFKKDYISQEGRVIDPSDARKITTSEGQSYGMFSALAANDRAAFDNILDWTQNNLAQGSLKERLPAWLWGKKENSKWEVLDSNSASDGDVWMAWSLLEAGRLWKEQRYTDIGSALLKRIAREEVVTVPGLGSMLLPGKVGFAEDNSWRFNPSYLPPTLAQYFTRFGAPWTTLRETNQRLLLETAPKGFSPDWVRYEKDKGWQLKAEKTLISSYDAIRVYMWVGMMPDSDPQKARMLNRFKPMATFTEKNGYPPEKVDVATGKAQGKGPVGFSAAMLPFLQNRDAQAVQRQRVADNFPGSDAYYNYVLTLFGQGWDQHRFRFSTKGELLPDWGQECANSH
Question: How did the “effect on BcsA-B's apparent reaction rate” value (Rs BcsA-B complex [3]; [4]) turn out when B1 was run?
Answer: The value was “does not change”.

Question: What about the “effect on accumulation of HMW cellulose” value (Rs BcsA-B complex [2]; [4]) of the same molecule?
Answer: Its value is “prevents the accumulation of HMW cellulose”.
